Experimental data reported in US4426390A, “Novel β-lactam compounds, process for producing thereof, and use thereof as medicines” (Sanraku-Ocean Co., Ltd., priority 1980, dated 1984).
Converted amounts (≈) assume the structure as drawn. Read-outs that look alike come from different tables or passages of the source.

Legend:
Assay type in all cases: cell-based
[1] = test system: Alcaligenes Faecolis A1; experiment: MIC by agar dilution method; details: Alcaligenes Faecolis A1; agar dilution, 37° C., 18 hours; read-out: MIC
Experimental: (§1) The MIC is measured by an agar dilution method based on the standard method of the Japanese Society of Chemotherapy (Japanese Society of Chemotherapy: The Revised Method of Determination of MIC Values, Chemotherapy 22, 1126-1128, […]). Specifically, the antibiotic is serially diluted with a 1/50 M phosphate buffer at a pH of 7.3 to prepare a twofold dilution series. One milliliter of each dilution and 9 ml of an agar medium (Heart Infusion Agar; a product of Difco Laboratories) are mixed and allowed to solidify in a Petri dish having a diameter of 9 cm. One loopful of the stock culture of the test microbe is inoculated in trypto-soy buillon (a product of Eiken Kagaku Co., Ltd.) and incubated at 37° C. for 18 hours. The resulting culture broth is diluted to a concentration of about 10^6 cells/ml with physiological saline and inoculated on the agar plate by means of a microplanter.

[2] = test system: Bacillus subtillis ATCC 6633; experiment: MIC by agar dilution method; details: Bacillus, ATCC6633, 18 h
Experimental: as §1

[3] = test system: Citrobacter Freundii GN346; experiment: MIC by agar dilution method; details: 37° C., 18 hours
Experimental: as §1

[4] = test system: Comamonas terrigena B996; experiment: MIC by agar dilution method; details: 37° C., 18 hours
Experimental: as §1

[5] = test system: E. coli RGN823; experiment: MIC by agar dilution method; details: Escherichia coli, 37° C., 18 hours
Experimental: as §1

[6] = test system: Ent. cloacae 45; experiment: MIC by agar dilution method; details: Enterobacter cloacae, 37° C., 18 hours
Experimental: as §1

[7] = test system: Ent. sp. E8; experiment: MIC by agar dilution method; details: Ent. sp. E8; agar dilution, 37° C., 18 hours; read-out: MIC
Experimental: as §1

[8] = test system: Enterobacter aerogenes E19; experiment: MIC by agar dilution method; details: Klebsiella aerogenes, 37° C., 18 hours
Experimental: as §1

[9] = test system: Escherichia coli K-12; experiment: MIC by agar dilution method; details: K12; Escherichia coli K-12; agar dilution, 37° C., 18 hours; read-out: MIC
Experimental: as §1

[10] = test system: Klebsiella pneumoniae K13; experiment: MIC by agar dilution method; details: 37° C., 18 hours
Experimental: as §1

[11] = test system: P. rettgeri P7; experiment: MIC by agar dilution method; details: Providencia rettgeri; P. rettgeri P7; agar dilution, 37° C., 18 hours; read-out: MIC
Experimental: as §1

[12] = test system: P. vulgaris GN76; experiment: MIC by agar dilution method; details: Proteus vulgaris, 37° C., 18 hours
Experimental: as §1

[13] = test system: Proteus mirabilis P6; experiment: MIC by agar dilution method; details: Proteus mirabilis P6; agar dilution, 37° C., 18 hours; read-out: MIC
Experimental: as §1

[14] = test system: Providencia sp. P8; experiment: MIC by agar dilution method; details: Providencia sp. P8; agar dilution, 37° C., 18 hours; read-out: MIC
Experimental: as §1

[15] = test system: Ps. aeruginosa NCTC10490; experiment: MIC by agar dilution method; details: Pseudomonas aeruginosa, 37° C., 18 hours
Experimental: as §1

[16] = test system: Pseudomonas aenginosa IFO3445; experiment: MIC by agar dilution method; details: 37° C., 18 hours
Experimental: as §1

[17] = test system: S. aureus Russell; experiment: MIC by agar dilution method; details: Staphylococcus aureus; S. aureus Russell; agar dilution, 37° C., 18 hours; read-out: MIC
Experimental: as §1

[18] = test system: S. aureus Smith; experiment: MIC by agar dilution method; details: Staphylococcus aureus, 37° C., 18 hours
Experimental: as §1

[19] = test system: S. epidermidis; experiment: MIC by agar dilution method; details: Staphylococcus epidermidis, 37° C., 18 hours
Experimental: as §1

[20] = test system: Sarcina lutea S19; experiment: MIC by agar dilution method; details: Micrococcus luteus, 37° C., 18 hours
Experimental: as §1

[21] = test system: Ser. marcesceus T55; experiment: MIC by agar dilution method; details: 37° C., 18 hours
Experimental: as §1

[22] = test system: Serratia marcesceus S18; experiment: MIC by agar dilution method; details: 37° C., 18 hours
Experimental: as §1

[23] = test system: Staphylococcus aureus 209P; experiment: MIC by agar dilution method; details: 37° C., 18 hours
Experimental: as §1

[24] = test system: Citrobacter Freundii GN346; experiment: Disc assay of synergy, inhibition zones; details: for zone of inhibition at 100 µg/mL: Citrobacter freundii
Experimental: (§2) (B) The presence or absence of synergy is visually checked by the size difference in inhibitory zones observed when the test drug is disc-assayedon an agar plate of a detector microbe and on an agar plate of the detector containing cephaloridine or benzylpenicillin, respectively.
(§3) One loopful of the stock culture of a test organism is inoculated in heat infusion broth (5 ml/tube), and grown at 37° C. for 18 hours. The culture broth is diluted to a final concentration of about 10^5 cells/ml in nutrient agar with or without benzyl penicillin or cephaloridine, and plated in a Petri dish with a diameter of 9 cm, as shown below.
(§4) Using the above-prepared agar plates, antibiotic PS-5 (100 μg/ml), antibiotic OA-6129B2 (5,6-trans OA-6129B) (100 μg/ml), benzylpenicillin (1000 μg/ml) and cephaloridine (1000 μg/ml) are subjected to disc assay.

[25] = test system: Enterobacter cloacac 45; experiment: Disc assay of synergy, inhibition zones
Experimental: as §2, §3, §4

[26] = test system: Proteus vulgaris GN76; experiment: Disc assay of synergy, inhibition zones; details: for zone of inhibition at 100 µg/mL: Proteus vulgaris
Experimental: as §2, §3, §4

[27] = test system: Serratia marccscens T55; experiment: Disc assay of synergy, inhibition zones; details: for zone of inhibition at 100 µg/mL: Serratia
Experimental: as §2, §3, §4

[28] = test system: Citrobacter Freundii GN346; experiment: Synergistic effect on MIC, microdilution transfer plate technique
[29] = test system: Proteus vulgaris GN76; experiment: as above
[30] = plate: + CER, disc OA-6129B2, PS-5 100 μg/ml, CER, PCG 1000 μg/ml
[31] = plate: + PCG, disc OA-6129B2, PS-5 100 μg/ml, CER, PCG 1000 μg/ml
[32] = plate: + PCG, reduced to 5 μg/ml (final concentration), disc OA-6129B2, PS-5 100 μg/ml, CER, PCG 1000 μg/ml
[33] = plate: None, disc OA-6129B2, PS-5 100 μg/ml, CER, PCG 1000 μg/ml

SMILES: CC(O)[C@H]1C(=O)N2C(C(=O)O)=C(SCCNC(=O)CCNC(=O)C(O)C(C)(C)CO)C[C@H]12 (relative stereo) [OA-6129B2]
- MIC [1]: 6.25 µg/mL (≈ 13.2 µM)
- MIC [2]: 1.56 µg/mL (≈ 3.29 µM)
- MIC [3]: 25 µg/mL (≈ 52.8 µM)
- MIC [4]: 0.39 µg/mL (≈ 0.824 µM)
- MIC [5]: 12.5 µg/mL (≈ 26.4 µM)
- MIC [6]: 50 µg/mL (≈ 106 µM)
- MIC [7]: 25 µg/mL (≈ 52.8 µM)
- MIC [8]: 25 µg/mL (≈ 52.8 µM)
- MIC [9]: 12.5 µg/mL (≈ 26.4 µM)
- MIC [10]: 12.5 µg/mL (≈ 26.4 µM)
- MIC [11]: 25 µg/mL (≈ 52.8 µM)
- MIC [12]: 50 µg/mL (≈ 106 µM)
- MIC [13]: 50 µg/mL (≈ 106 µM)
- MIC [14]: 6.25 µg/mL (≈ 13.2 µM)
- MIC [15]: > 100 µg/mL
- MIC [16]: > 100 µg/mL
- MIC [17]: 12.5 µg/mL (≈ 26.4 µM)
- MIC [18]: 12.5 µg/mL (≈ 26.4 µM)
- MIC [19]: 12.5 µg/mL (≈ 26.4 µM)
- MIC [20]: 6.25 µg/mL (≈ 13.2 µM)
- MIC [21]: 50 µg/mL (≈ 106 µM)
- MIC [22]: 25 µg/mL (≈ 52.8 µM)
- MIC [23]: 6.25 µg/mL (≈ 13.2 µM)
- zone of inhibition at 100 µg/mL ([24]; GN346, plate: None, disc OA-6129B2, PS-5 100 μg/ml, CER, PCG 1000 μg/ml, read-out: diameter of inhibition zones): 12 mm
- diameter of inhibition zones [24, 30]: 16.0 mm
- diameter of inhibition zones [24, 31]: 13.0 mm
- zone of inhibition at 100 µg/mL ([25]; Enterobacter, 45, plate: None, disc OA-6129B2, PS-5 100 μg/ml, CER, PCG 1000 μg/ml, read-out: diameter of inhibition zones): 10 mm
- diameter of inhibition zones [25, 30]: 15.0 mm
- diameter of inhibition zones [25, 31]: 12.0 mm
- zone of inhibition at 100 µg/mL ([26]; GN76, plate: None, disc OA-6129B2, PS-5 100 μg/ml, CER, PCG 1000 μg/ml, read-out: diameter of inhibition zones): 0 mm
- diameter of inhibition zones [26, 30]: 20.0 mm
- diameter of inhibition zones [26, 31]: 19.5 mm
- zone of inhibition at 100 µg/mL ([27]; T55, plate: None, disc OA-6129B2, PS-5 100 μg/ml, CER, PCG 1000 μg/ml, read-out: diameter of inhibition zones): 12 mm
- diameter of inhibition zones [27, 30]: 22.0 mm
- diameter of inhibition zones [27, 32]: 12.0 mm

SMILES: CC1(C)S[C@@H]2[C@H](NC(=O)[C@H](N)c3ccccc3)C(=O)N2[C@H]1C(=O)O [ABPC, Aminobenzylpenicillin]
- MIC of ABPC in combination ([28]; with OA-6129A 6.25 μg/ml): 313 µg/mL
- MIC of ABPC in combination ([28]; with OA-6129A 25 μg/ml): < 5 µg/mL
- MIC of ABPC in combination ([28]; with OA-6129A 50 μg/ml): < 5 µg/mL
- MIC of ABPC in combination ([28]; with OA-6129A […]): 625 µg/mL
- MIC of ABPC in combination ([29]; with OA-6129A 1.56 μg/ml): 3.3 µg/mL
- MIC of ABPC in combination ([29]; with OA-6129A 6.25 μg/ml): 39 µg/mL
- MIC of ABPC in combination ([29]; with OA-6129A 25 μg/ml): 10 µg/mL
- MIC of ABPC in combination ([29]; with OA-6129A 50 μg/ml): < 5 µg/mL
- MIC of ABPC in combination ([29]; with OA-6129A […]): 156 µg/mL

SMILES: O=C(Cc1cccs1)N[C@@H]1C(=O)N2C(C(=O)[O-])=C(C[n+]3ccccc3)CS[C@H]12 [CER, Cephaloridine]
- MIC of CER in combination ([28]; with OA-6129A 1.56 μg/ml): 1250 µg/mL
- MIC of CER in combination ([28]; with OA-6129A 6.25 μg/ml): 313 µg/mL
- MIC of CER in combination ([28]; with OA-6129A 25 μg/ml): < 5 µg/mL
- MIC of CER in combination ([28]; with OA-6129A 50 μg/ml): < 5 µg/mL
- MIC ([29]; Proteus vulgaris, GN76, alone, heart infusion broth, 10^5 cells/ml): 1250 µg/mL
- MIC of CER in combination ([29]; with OA-6129A 1.56 μg/ml): 313 µg/mL
- MIC of CER in combination ([29]; with OA-6129A 6.25 μg/ml): 39 µg/mL
- MIC of CER in combination ([29]; with OA-6129A 25 μg/ml): < 5 µg/mL
- MIC of CER in combination ([29]; with OA-6129A 50 μg/ml): < 5 µg/mL
- zone of inhibition at 100 µg/mL ([24]; GN346, read-out: diameter of inhibition zones): 0 mm
- diameter of inhibition zones [24, 30]: 0 mm
- diameter of inhibition zones [24, 31]: 0 mm
- zone of inhibition at 100 µg/mL ([25]; Enterobacter, 45, read-out: diameter of inhibition zones): 0 mm
- diameter of inhibition zones [25, 30]: 0 mm
- diameter of inhibition zones [25, 31]: 0 mm
- zone of inhibition at 100 µg/mL ([26]; GN76, read-out: diameter of inhibition zones): 0 mm
- diameter of inhibition zones [26, 30]: 0 mm
- diameter of inhibition zones [26, 31]: 0 mm
- zone of inhibition at 100 µg/mL ([27]; T55, read-out: diameter of inhibition zones): 0 mm
- diameter of inhibition zones [27, 30]: 0 mm
- diameter of inhibition zones [27, 32]: 0 mm

SMILES: CC1(C)S[C@@H]2[C@H](NC(=O)Cc3ccccc3)C(=O)N2[C@H]1C(=O)O [PCG, benzylpenicillin]
- diameter of inhibition zones [24, 30]: 0 mm
- diameter of inhibition zones [24, 31]: 0 mm
- diameter of inhibition zones [24, 33]: 0 mm
- diameter of inhibition zones [25, 30]: 0 mm
- diameter of inhibition zones [25, 31]: 0 mm
- diameter of inhibition zones [25, 33]: 0 mm
- diameter of inhibition zones [26, 30]: 0 mm
- diameter of inhibition zones [26, 31]: 0 mm
- diameter of inhibition zones [26, 33]: 0 mm
- diameter of inhibition zones [27, 30]: 0 mm
- diameter of inhibition zones [27, 32]: tr.
- diameter of inhibition zones [27, 33]: tr.
